Reference: US20110065760A1, “COMPOUNDS FOR THE INHIBITION OF ROTAMASES AND USE THEREOF” (Jerini AG, priority 2002, published 2011)
Like-named read-outs stand apart in the source and are kept apart here.

Legend:
cathepsin B = cathepsin B (Homo sapiens, UniProt P07858); assay: cathepsin B assay; type: biochemical; settings: 0.2 μg/ml cathepsin B, 2 mM Z-Arg-Arg-pNA, pH 5.8, 30° C., 30 min incubation; read-out: IC50 class, Target T-8 (Cathepsin)
Experimental: (§1) In order to investigate the impact of some of the inventive compounds on the activity of key proteases the following assay was performed: Protease activities were measured spectrophotometrically at 30° C. according to Schomburg and Salzmann (Schomburg, B.; Salzmann M. GBF: Enzyme Handbook. Springer Verlag, Berlin Heidelberg, 1991) and Bergmeyer et al. (Bergmeyer, H. U.; Bergmeyer, J.; Graβl, M. Methods of Enzymatic Analysis, Vol. V Enzymes 3: Peptides, Proteinases and Their Inhibitors. pp 55-371, VCH, Weinheim, 1988). The release of 4-nitroaniline was determined at 390 nm with a Spectramax Plus UV/Vis spectrophotometer (Molecular Devices). The cathepsin B assay was performed in a reaction mixture containing 0.2 μg/ml cathepsin B, 2 mM Z-Arg-Arg-pNA in 88 mM KH2PO4, 12 mM Na2HPO4, 1.33 mM EDTA, 0.03% Brij 35 (pH 5.8). The trypsin assay was carried out in a reaction mixture containing 0.1 μg/ml trypsin and 120 μM Ac-Ala-Ala-Ser(PO3H2)-Pro-Arg-pNA in 35 mM HEPES (pH 7.8) and the papain assay in a mixture consisting of 16 μg/ml papain and 2 mM Bz-DL-Arg-pNA in 10 mM Na2HPO4, 2 mM L-Cys, 5 mM EDTA (pH 6.5). In general, reactions were started by addition of peptide substrate after a 30 min incubation of 1-100 μM effector with given concentrations of enzyme.

Papain = molecular target: T1, Papain (Carica papaya, UniProt P00784); assay: papain assay; type: biochemical; settings: 16 μg/ml papain, 2 mM Bz-DL-Arg-pNA, pH 6.5, 30° C., 30 min incubation; read-out: IC50 class, Target T-6 (Papain)
T1 sequence (P00784 134-345): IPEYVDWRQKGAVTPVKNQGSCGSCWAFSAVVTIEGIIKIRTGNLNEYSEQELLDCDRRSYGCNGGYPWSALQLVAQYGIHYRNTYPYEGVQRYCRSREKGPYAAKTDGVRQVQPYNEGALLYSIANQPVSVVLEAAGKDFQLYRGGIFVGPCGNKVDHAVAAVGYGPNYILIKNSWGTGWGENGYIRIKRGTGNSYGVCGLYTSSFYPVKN
Experimental: as §1

hFKBP12 = hFKBP12 (Homo sapiens, UniProt P62942); assay: protease-coupled PPIase assay, hFKBP12; type: biochemical; settings: 20 nM hFKBP12, substrate Suc-Ala-Phe-Pro-Phe-pNA, chymotrypsin, pH 7.8, 6° C.; read-out: IC50 class, Target T-2 (hFKBP12)
LpCyp18 = LpCyp18 (Legionella pneumophila, UniProt Q5ZRZ4); assay: biochemical; settings: IC50 class, Target T-4 (LpCyp18)
EcParvulin = EcParvulin (Escherichia coli, UniProt P0A9L5); assay: protease-coupled PPIase assay, EcParvulin; type: biochemical
hCyp18 = hCyp18 (Homo sapiens, UniProt P62937); assay: protease-coupled PPIase assay, hCyp18; type: biochemical; settings: 10 nM hCyp18, substrate Suc-Ala-Phe-Pro-Phe-pNA, chymotrypsin, pH 7.8, 6° C.; read-out: IC50 class, Target T-3 (hCyp18)
hPin1 = hPin1 (Homo sapiens, UniProt Q13526); assay: protease-coupled PPIase assay, hPin1; type: biochemical; settings: 6 nM hPin1, substrate Ac-Ala-Ala-Ser(PO3H2)-Pro-Arg-pNA, trypsin, pH 7.8, 6° C.; read-out: IC50 class, Target T-1 (hPin1)
[1] = WST-1 cytotoxicity assay, HeLa; type: cell-based; settings: human, HeLa cells (cervix carcinoma); WST-1, 48 h incubation; read-out: EC50 class, cytotoxic effect, CL-2 (HeLa)
Experimental: (§2) For this cytotoxic evaluation of the compounds the commercial available WST-1 assay (Roche) was used according to the manufacturer's instructions. The assay is based on the cleavage of the tetrazolium salt WST-1 by mitochondrial dehydrogenases found in viable cells. In general compounds were added to cells cultured in 96-well plates at 37° C. After 48 h of incubation 10 μl of WST-1 solution was added. The formazan dye was analyzed with an ELISA plate reader at (450 vs. 620) nm. CL-1: human acute myeloid leukemia, HL-60 CL-2: human cervix carcinoma, HeLa CL-3: human prostate carcinoma, PC-3 CL-4: human colon adenocarcinoma, Caco-2 CL-5: human breast adenocarcinoma, MCF-7

[2] = WST-1 cytotoxicity assay, PC-3; type: cell-based; settings: human, PC-3 cells (prostate carcinoma); WST-1, 48 h incubation; read-out: EC50 class, cytotoxic effect, CL-3 (PC-3)
Experimental: as §2

[3] = WST-1 cytotoxicity assay, HL-60; type: cell-based; settings: human, HL-60 cells (acute myeloid leukemia); WST-1, 48 h incubation; read-out: EC50 class, cytotoxic effect, CL-1 (HL-60)
Experimental: as §2

[4] = system: tumor cell lines (HL-60, HeLa, PC-3, Caco-2, MCF-7); assay: WST-1 cytotoxicity assay, tumor cell lines (panel statement); type: cell-based, human; settings: WST-1, 48 h; table 4
Experimental: as §2

[5] = WST-1 cytotoxicity assay, MCF-7; type: cell-based; settings: human, MCF-7 cells (breast adenocarcinoma); WST-1, 48 h incubation; read-out: EC50 class, cytotoxic effect, CL-5 (MCF-7)
Experimental: as §2

[6] = system: cyclin D1 in MCF-7 and HeLa cells; assay: Cyclin D1 down regulation (western blot marker analysis); type: cell-based, human
Experimental: MCF-7 (5×10^5 cells/well) and HeLa cells (1.5×10^5 cells/well) were seeded in 6-well plates and incubated at 37° C. over night. Compounds or DMSO (final solvent concentration 0.1%) were added to the cells and incubated for different times as indicated. Subsequently, cells were lysed in RIPA buffer for 30 min on ice and centrifuged for 20 min at 4° C. After addition of electrophoresis sample buffer (4×) and 50 mM DTT to the supernatant, samples were boiled for 4 min at 95° C. Samples (equivalent to 2×10^5 cells/well) were run on a 15% SDS gel followed by blotting onto PVDF membrane.
The membrane was blocked for 1 h in 10 mM Tris (pH 7.5), 100 mM NaCl, 0.1% Tween-20 and 5% non-fat dry milk (blocking buffer) and incubated for 1 h with mouse anti-hCyclin D1 monoclonal antibody (clone DCS-6, BD Biosciences) diluted to 1 μg/ml in blocking buffer. Blots were washed 3×10 min with 10 mM Tris (pH 7.5), 100 mM NaCl, 0.1% Tween-20 (washing buffer) and incubated with 0.7 μg/ml peroxidase-conjugated sheep anti-mouse IgG (Sigma) in blocking buffer for 1 h. After washing 3×10 min with washing buffer, the plot was developed with the ECL+ detection kit (Amersham Biosciences).

Chain of hPin1 (Q13526 whole entry): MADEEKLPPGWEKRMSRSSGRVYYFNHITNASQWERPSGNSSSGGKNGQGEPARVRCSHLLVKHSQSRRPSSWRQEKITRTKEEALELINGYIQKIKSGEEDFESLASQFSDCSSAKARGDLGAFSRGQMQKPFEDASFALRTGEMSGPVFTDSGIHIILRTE
Chain of LpCyp18 (Q5ZRZ4 1-164): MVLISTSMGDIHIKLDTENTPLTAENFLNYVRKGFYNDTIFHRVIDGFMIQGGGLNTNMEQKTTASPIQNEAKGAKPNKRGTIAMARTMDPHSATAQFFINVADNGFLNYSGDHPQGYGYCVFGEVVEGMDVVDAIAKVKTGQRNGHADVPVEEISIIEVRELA
Chain of hCyp18 (P62937 whole entry): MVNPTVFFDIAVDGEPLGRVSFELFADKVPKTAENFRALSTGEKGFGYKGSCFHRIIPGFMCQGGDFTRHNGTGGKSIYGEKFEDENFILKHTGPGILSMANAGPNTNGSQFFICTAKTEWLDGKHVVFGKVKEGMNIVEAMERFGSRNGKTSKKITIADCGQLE
Chain of EcParvulin (P0A9L5 whole entry): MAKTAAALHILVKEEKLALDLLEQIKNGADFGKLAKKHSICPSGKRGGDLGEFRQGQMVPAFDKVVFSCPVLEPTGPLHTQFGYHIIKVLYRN
Chain of hFKBP12 (P62942 whole entry): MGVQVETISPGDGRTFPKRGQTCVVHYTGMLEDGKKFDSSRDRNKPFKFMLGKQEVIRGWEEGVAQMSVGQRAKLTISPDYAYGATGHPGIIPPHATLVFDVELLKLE

## Cc1c(Cl)cc(NCc2cccc(Oc3ccccc3)c2)c(O)c1Cl [Compound 497]
Cathepsin B
  IC50: 10 to 50 µM
Papain
  IC50: > 100 µM

## Cc1c(Cl)cc(NC(=O)CC(C)CC(C)(C)C)c(O)c1Cl (stereo not shown) [Compound 599]
hFKBP12
  IC50: > 100 µM
LpCyp18
  IC50: 50 to 100 µM
EcParvulin
  IC50: 10 to 50 µM
Cathepsin B
  IC50: 50 to 100 µM
hCyp18
  IC50: > 100 µM
hPin1
  IC50: 1 to 10 µM
Papain
  IC50: > 100 µM

## Oc1ccccc1NCc1ccccc1Sc1ccc(Cl)cc1 [Compound 630]
[1]
  EC50 at 48 h: < 10 µM
[2]
  EC50 at 48 h: < 10 µM
[3]
  EC50 at 48 h: 10 to 50 µM

## O=C(NCc1ccccc1)Nc1cc(Cl)c(O)c(NCc2ccccc2Sc2ccc(Cl)cc2)c1 [Compound 631]
[2]
  EC50 at 48 h: 10 to 50 µM
[3]
  EC50 at 48 h: < 10 µM

## O=C(NCCc1ccccc1)Nc1cc(Cl)c(O)c(NCc2ccccc2Sc2ccc(Cl)cc2)c1 [Compound 632]
[2]
  EC50 at 48 h: 10 to 50 µM
[3]
  EC50 at 48 h: < 10 µM

## O=C(Nc1ccc(Cl)cc1)Nc1cc(Cl)c(O)c(NCc2ccccc2Sc2ccc(Cl)cc2)c1 [Compound 633]
[2]
  EC50 at 48 h: < 10 µM
[4]
  cytotoxic effect on the tumor cell lines tested: particular relevance
[3]
  EC50 at 48 h: < 10 µM

## CC(C)NC(=S)Nc1cc(-c2nc3ccccc3s2)cc(Cl)c1O [Compound 639]
[5]
  EC50 at 48 h: 10 to 50 µM
hPin1
  IC50: < 1 µM
[6]
  cyclin D1 down regulation: particular relevance
[3]
  EC50 at 48 h: < 10 µM

## CC(C)(C)NC(=S)Nc1cc(-c2nc3ccccc3s2)cc(Cl)c1O [Compound 640]
[5]
  EC50 at 48 h: 10 to 50 µM
hPin1
  IC50: 1 to 10 µM
[3]
  EC50 at 48 h: 10 to 50 µM

## O=C(Nc1cc(Cl)cc(Cl)c1O)c1ccc(-c2ccccc2)cc1 [Compound 645]
[5]
  EC50 at 48 h: < 10 µM
[1]
  EC50 at 48 h: < 10 µM
[2]
  EC50 at 48 h: < 10 µM
[4]
  cytotoxic effect on the tumor cell lines tested: particular relevance
Papain
  IC50: > 100 µM
[3]
  EC50 at 48 h: < 10 µM

## Cc1c(Cl)cc(NCc2ccco2)c(O)c1Cl [Compound 646]
Cathepsin B
  IC50: > 100 µM
Papain
  IC50: > 100 µM

## Cc1c(Cl)cc(NCc2ccccc2C(F)(F)F)c(O)c1Cl [Compound 649]
Cathepsin B
  IC50: 50 to 100 µM
Papain
  IC50: > 100 µM

## O=C(Nc1cc(Cl)nc(Cl)c1)Nc1cc(Cl)c(O)c(NCc2ccccc2Sc2ccc(Cl)cc2)c1 [Compound 652]
[2]
  EC50 at 48 h: < 10 µM
[4]
  cytotoxic effect on the tumor cell lines tested: particular relevance
[3]
  EC50 at 48 h: < 10 µM

## Oc1c(Cl)cc(-c2nc3ccccc3s2)cc1NC(=S)NC1CCCC1 [Compound 653]
[5]
  EC50 at 48 h: 10 to 50 µM
[3]
  EC50 at 48 h: < 10 µM

## O=C(Nc1cc(Cl)c(O)c(NCc2ccccc2Sc2ccc(Cl)cc2)c1)N1CCOCC1 [Compound 654]
[5]
  EC50 at 48 h: < 10 µM
[1]
  EC50 at 48 h: 10 to 50 µM

## Oc1ccc(NCc2ccccc2Sc2ccc(Cl)cc2)c(O)c1 [Compound 1044]
hFKBP12
  IC50: 10 to 50 µM
LpCyp18
  IC50: 1 to 10 µM
EcParvulin; 20 nM EcParvulin, substrate Suc-Ala-Phe-Pro-Phe-pNA, chymotrypsin, pH 7.8, 6° C., read-out: IC50 class, Target T-5 (EcParv)
  IC50: 10 to 50 µM
hCyp18
  IC50: 10 to 50 µM
hPin1
  IC50: < 1 µM
[1]
  EC50 at 48 h: 10 to 50 µM
[2]
  EC50 at 48 h: 10 to 50 µM
[4]
  cytotoxic effect on the tumor cell lines tested: particular relevance
[3]
  EC50 at 48 h: 10 to 50 µM
